The results in this text go back to patent US20260297542A1, “HERBICIDE RESISTANT PLANTS” (SYNGENTA CROP PROTECTION AG, priority 2023, published 2026).

Broadly, the inhibition is the percentage by which the read-out fell short of the control.

The target in assay [1] is T1, AtPPO1 S305L Y426V (SEQ ID NO.125) (Arabidopsis thaliana, UniProt P55826, S305L/Y426V).
T1 construct: made in house; host or cells: E. coli BL21 (DE3) hemG, crude extract
T1 sequence (P55826 35-537 S305L/Y426V): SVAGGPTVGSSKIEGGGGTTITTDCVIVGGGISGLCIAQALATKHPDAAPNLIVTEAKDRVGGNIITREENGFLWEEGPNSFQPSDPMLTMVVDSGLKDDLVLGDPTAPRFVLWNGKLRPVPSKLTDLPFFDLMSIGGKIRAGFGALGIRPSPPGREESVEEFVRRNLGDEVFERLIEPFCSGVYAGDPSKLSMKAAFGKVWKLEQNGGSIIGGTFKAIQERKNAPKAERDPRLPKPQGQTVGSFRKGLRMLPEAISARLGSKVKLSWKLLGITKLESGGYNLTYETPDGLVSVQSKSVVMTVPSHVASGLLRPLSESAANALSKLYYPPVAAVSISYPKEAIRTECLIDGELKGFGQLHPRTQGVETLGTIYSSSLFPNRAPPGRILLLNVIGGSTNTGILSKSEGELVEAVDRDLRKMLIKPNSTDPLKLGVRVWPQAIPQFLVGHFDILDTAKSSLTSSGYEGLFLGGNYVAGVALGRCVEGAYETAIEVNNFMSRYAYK
As to the kind of experiment: fluorescent Protoporphyrinogen Oxidase assay, crude extract. It is filed as biochemical. The note with it: read-out: percentage inhibition. As to the method:
(§1) A pET24 plasmid containing a DNA sequence encoding each identified variant mutant of AtPPO1 derived from Arabidopsis thaliana, codon-optimised for expression in E. coli, and under control of a T7 promoter, was synthesised by Twist Bioscience. This plasmid was expressed in E. coli BL21 (DE3) hemG with 50 μg/mL kanamycin and 25 μg/mL chloramphenicol selection. Overnight cultures grown at 37° C. were used to inoculate 150 ml AIM (AIM-Terrific Broth Base including Trace elements, Formedium) in 500 ml shake flasks at a ratio of 1:100. Cultures were grown at 37° C., 200 rpm for 3 hours and then overnight at 26° C. Cells were harvested by 4° C. centrifugation for 20 minutes at 600 rpm. Cells were stored at −80° C. until extraction. 0.5-1 g of cell pellet from was thawed and resuspended in ratio of 1:1 in lysis buffer (20 mM Tris pH8, 500 mM sodium chloride, 10% glycerol, 1× complete Protease EDTA-free Inhibitor Tablet (Roche)). The resuspension was sonicated at 50% using 10-20 cycles of 10 seconds, 20 seconds off. After sonication Triton X-100 was added to the lysates at a final concentration of 0.5%. The lysates were centrifuged at 13.00 rpm for 10 min at 4° C. The crude extracts (i.e, supernatants) were stored at −80° C. Protein concentration was measured and calculated using the absorbance at 280 nm. Extracts were diluted 1 in 4 and 10 uL was analysed by SDS PAGE.
(§2) Variant crude extracts were assayed in a fluorescent Protoporphyrinogen Oxidase assay in black 384 well plates with a clear bottom. The total volume of the reaction mixture was 100 ul and contained 100 mM K2HPO4 pH7.2, 1 mM Na2EDTA, 5 mM DTT, 20% glycerol (v/v), 0.025% Tween 20 (v/v). Reactions were started with addition of 1 uM protoporphyrinogen IX final assay concentration. Fluorescence was monitored over 30 min using a Tecan plate reader with an excitation wavelength of 405 nm, emission wavelength of 635 nm, gain of 90 and 15 flashes. 10 ul of 3-fold serial dilution of crude extract in 100 mM K2HPO4 pH7.2, 1 mM Na2EDTA, 5 mM DTT, 20% glycerol (v/v), 0.05% Tween 20 (v/v) was tested in the assay against 1% DMSO and 100 ppm herbicide B to determine the correct amount of crude extract to add to the assay to observe activity. 10 ul of the appropriate crude extract dilution was then tested in the fluorescent Protoporphyrinogen Oxidase assay against DMSO and 10-fold dose response of each compound (herbicides A to E) with a top rate of 100 ppm.
(§3) The percentage inhibition was calculated as the activity in the presence of one of four concentrations of each herbicide compound A to E (note that the compounds labelled as A to E are identified hereinabove in the relevant section of the description) as a percentage of the enzyme activity in DMSO (Table 5).

The target of assay [2] is T2, AtPPO1 S305L Y426V L479M (SEQ ID NO.131) (Arabidopsis thaliana, UniProt P55826, L479M/S305L/Y426V).
T2 construct: made in house; host or cells: E. coli BL21 (DE3) hemG, crude extract
T2 sequence (P55826 35-537 S305L/Y426V/L479M): T1 sequence (P55826 35-537 S305L/Y426V) with L445M
The description is as above. It is filed as biochemical. To be noted: read-out: percentage inhibition. As to the method: as §1, §2, §3

Residue numbers refer to the chain shown, from its start.

In the case of `C#CCN1C(=O)C(F)(F)Oc2cc(F)c(-n3c(=O)n(C)c(=S)n(C)c3=O)cc21` [Herbicide B, trifludimoxazin], in assay [1], the inhibition at 0.1 ppm was 87%, the inhibition at 1 ppm was 99%, the inhibition at 10 ppm is 100% and the inhibition at 100 ppm was found to be 100%. Also, in assay [2], the inhibition at 0.1 ppm was 99%, the inhibition at 1 ppm is 96%, the inhibition at 10 ppm was 100% and the inhibition at 100 ppm came out at 100%.

Regarding `CCOC(=O)COc1ncccc1Oc1cc(-n2c(=O)cc(C(F)(F)F)n(C)c2=O)c(F)cc1Cl` [Herbicide A, epyrifenacil], in assay [1], the inhibition at 0.1 ppm amounted to 0%, the inhibition at 1 ppm turned out to be 11%, the inhibition at 10 ppm stood at 63% and the inhibition at 100 ppm is 87%. Moreover, in assay [2], the inhibition at 0.1 ppm was 0%, the inhibition at 1 ppm worked out at 52%, the inhibition at 10 ppm came to 87% and the inhibition at 100 ppm was 100%.

Take `CCOC(=O)[C@]1(C)CC(c2cc(-n3c(=O)n(C)c(=S)n(C)c3=O)c(F)cc2Cl)=NO1` [Herbicide D, ethyl (5S)-3-[2-chloro-5-(3,5-dimethyl-2,6-dioxo-4-thioxo-1,3,5-triazinan-1-yl)-4-fluoro-phenyl]-5-methyl-4H-isoxazole-5-carboxylate]: in assay [1], the inhibition at 0.1 ppm was determined as 0%, the inhibition at 1 ppm was found to be 10%, the inhibition at 10 ppm came to 53% and the inhibition at 100 ppm came to 83%. In assay [2], the inhibition at 0.1 ppm is 4%, the inhibition at 1 ppm turned out to be 46%, the inhibition at 10 ppm came out at 76% and the inhibition at 100 ppm was determined as 97%.

For the molecule `CC(C)N(C)S(=O)(=O)NC(=O)c1cc(-n2c(=O)cc(C(F)(F)F)n(C)c2=O)c(F)cc1Cl` [Herbicide E, saflufenacil], in assay [1], the inhibition at 0.1 ppm is 0%, the inhibition at 1 ppm was determined as 2%, the inhibition at 10 ppm came to 50% and the inhibition at 100 ppm stood at 84%. Besides, in assay [2], the inhibition at 0.1 ppm came out at 0%, the inhibition at 1 ppm was 28%, the inhibition at 10 ppm amounted to 70% and the inhibition at 100 ppm turned out to be 87%.

`CCOC(=O)C1(C)CC(c2cc(-n3c(=O)cc(C(F)(F)F)n(C)c3=O)c(F)cc2Cl)=NO1` (stereo not shown) [Herbicide C, 3-(2-chloro-4-fluoro-5-(3-methyl-2,6-dioxo-4-trifluoromethyl-3,6-dihydropyrimidin-1(2H)-yl)phenyl)-5-methyl-4,5-dihydroisoxazole-5-carboxylic acid ethyl ester]: in assay [1], the inhibition at 0.1 ppm came to 0%, the inhibition at 1 ppm was 31%, the inhibition at 10 ppm was determined as 81% and the inhibition at 100 ppm is 97%. Moreover, in assay [2], the inhibition at 0.1 ppm came to 28%, the inhibition at 1 ppm came to 59%, the inhibition at 10 ppm stood at 90% and the inhibition at 100 ppm was 100%.
